Data taken from US11370774B2, “Substituted benzofuran, benzopyrrole, benzothiophene, and structurally related complement inhibitors” (BioCryst Pharmaceuticals, Inc., priority 2018, dated 2022).

Each compound was assayed against Factor D (Homo sapiens (Human), UniProt P00746) (assay: Factor D esterolytic assay (Z-Lys-SBzl substrate, DTNB, 405 nm)). Settings: Z-Lys-SBzl 1.29 mM, pH 7.5, 10% DMSO, tested a minimum of three times, read-out: Measured Ki (IC50) Value for Compounds: IC50.
Chain of Factor D (P00746 26-253): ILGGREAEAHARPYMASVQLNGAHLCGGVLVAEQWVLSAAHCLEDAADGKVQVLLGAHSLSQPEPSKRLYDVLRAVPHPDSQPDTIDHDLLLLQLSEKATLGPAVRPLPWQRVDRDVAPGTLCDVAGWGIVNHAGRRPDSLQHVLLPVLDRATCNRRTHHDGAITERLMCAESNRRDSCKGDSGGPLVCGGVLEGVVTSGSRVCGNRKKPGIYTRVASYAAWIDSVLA
Assay type: biochemical
Summary of the method: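 Human Factor D ([…]) with 1.29 mM Z-Lys-SBzl in 100 mM HEPES, 500 mM NaCl, pH 7.5, 10% DMSO; substrate added immediately or after room-temperature preincubation. Released thiol reacted with DTNB, rate followed at 405 nm for 600 sec, 690 nm background subtracted. IC50 from percent inhibition versus uninhibited rate, n≥3.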
For `NCc1cccc(-c2cc(COc3cc4ccccc4cc3CC(=O)O)cc3ccoc23)c1` [Compound 401e, 2-(3-((7-(3-(aminomethyl)phenyl)benzofuran-5-yl)methoxy)naphthalen-2-yl)acetic acid], the IC50 was less than 1 µM.
`NCc1cccc(-c2cc(COc3ccccc3CC(=O)O)cc3cc(CNCc4cccnc4)oc23)c1` [Compound 281c, 2-(2-((7-(3-(aminomethyl)phenyl)-2-(((pyridin-3-ylmethyl)amino)methyl)benzofuran-5-yl)methoxy)phenyl)acetic acid] showed an IC50 of less than 1 µM.
`NCc1cccc(-c2cc(COc3ccccc3CC(=O)O)nc3ccoc23)c1F` [Compound 134b, 2-(2-((7-(3-(aminomethyl)-2-fluorophenyl)furo[3,2-b]pyridin-5-yl)methoxy)phenyl)acetic acid] showed an IC50 of less than 1 µM.
Work on `NCc1cccc(-c2cc(COc3ccccc3CC(=O)O)cc3cc(CNC(=O)c4ccccc4)oc23)c1` [Compound 294f, 2-(2-((7-(3-(aminomethyl)phenyl)-2-(benzamidomethyl)benzofuran-5-yl)methoxy)phenyl)acetic acid] yielded an IC50 of less than 1 µM.
`NCc1cc(-c2cc(COc3cc(F)ccc3CC(=O)O)cc3cc(F)oc23)ccn1` [Compound 523b, 2-(2-((7-(2-(aminomethyl)pyridin-4-yl)-2-fluorobenzofuran-5-yl)methoxy)-4-fluorophenyl)acetic acid] showed an IC50 of less than 1 µM.
In the case of `NCc1cccc(-c2cc(COc3cc(CO)ccc3CC(=O)O)cc3ccoc23)c1` [Compound 361c, 2-(2-((7-(3-(aminomethyl)phenyl)benzofuran-5-yl)methoxy)-4-(hydroxymethyl)phenyl)acetic acid], the IC50 is reported as less than 1 µM.
`NCc1cccc(-c2cc(COc3ccccc3CC(=O)O)cc3cc(Cn4ccnc4)oc23)c1` [Compound 140c, 2-(2-((2-((1H-imidazol-1-yl)methyl)-7-(3-(aminomethyl)phenyl)benzofuran-5-yl)methoxy)phenyl)acetic acid] gave an IC50 of less than 1 µM.
Work on `Cc1cc2cc(COc3ccccc3CC(=O)O)cc(-c3cccc(CN)c3)c2o1` [Compound 84f, 2-(2-((7-(3-(aminomethyl)phenyl)-2-methylbenzofuran-5-yl)methoxy)phenyl)acetic acid] yielded an IC50 of less than 1 µM.
`NCc1cccc(-c2cc(C(=O)Nc3ccccc3CC(=O)O)cc3c2cnn3CC2CC2)c1` [Compound 10d, 2-(2-(4-(3-(aminomethyl)phenyl)-1-(cyclopropylmethyl)-1H-indazole-6-carboxamido)phenyl)acetic acid] was tested, and the IC50 was less than 1 µM.
For `COCc1cc2cc(COc3ccccc3CC(=O)O)cc(-c3ccnc(CN)c3)c2o1` [Compound 132b, 2-(2-((7-(2-(aminomethyl)pyridin-4-yl)-2-(methoxymethyl)benzofuran-5-yl)methoxy)phenyl)acetic acid], the IC50 was less than 1 µM.
In the case of `NCc1cccc(-c2cc(CC(=O)N3C[C@H](F)C[C@H]3C(=O)NCc3cccc(Cl)c3F)cc3ccoc23)c1` [Compound 368c, (2S,4R)-1-(2-(7-(3-(aminomethyl)phenyl)benzofuran-5-yl)acetyl)-N-(3-chloro-2-fluorobenzyl)-4-fluoropyrrolidine-2-carboxamide], the IC50 is reported as less than 1 µM.
Compound `COCc1cc2cc(COc3cc(F)ccc3CC(=O)O)cc(-c3ccnc(CN)c3)c2o1` [Compound 515c, 2-(2-((7-(2-(aminomethyl)pyridin-4-yl)-2-(methoxymethyl)benzofuran-5-yl)methoxy)-4-fluorophenyl)acetic acid] has an IC50 of less than 1 µM.
In the case of `COc1ccc(-c2ccc(CC(=O)O)c(OCc3cc(-c4cccc(CN)c4)c4occc4c3)c2)c(F)c1` [Compound 397e, 2-(3-((7-(3-(aminomethyl)phenyl)benzofuran-5-yl)methoxy)-2′-fluoro-4′-methoxy-[1,1′-biphenyl]-4-yl)acetic acid], the IC50 is reported as less than 1 µM.
`CC(C)(C)c1cc(OCc2cc(-c3cccc(CN)c3)c3occc3c2)c(CC(=O)O)cc1Cl` [Compound 308h, 2-(2-((7-(3-(aminomethyl)phenyl)benzofuran-5-yl)methoxy)-4-(tert-butyl)-5-chlorophenyl)acetic acid] gave an IC50 of less than 1 µM.
`NCc1cccc(-c2nc(C(=O)Nc3ccccc3CC(=O)O)nc3ccsc23)c1` [Compound 31f, 2-(2-(4-(3-(aminomethyl)phenyl)thieno[3,2-d]pyrimidine-2-carboxamido)phenyl)acetic acid] showed an IC50 of less than 1 µM.
For `C[C@@H](N)c1cccc(-c2cc(COc3ccccc3CC(=O)O)cc3ccoc23)c1` [Compound 78c, (R)-2-(2-((7-(3-(1-aminoethyl)phenyl)benzofuran-5-yl)methoxy)phenyl)acetic acid], the IC50 was less than 1 µM.
Work on `NCc1cc(-c2cc(COc3ccccc3CC(=O)O)cc3ccoc23)ccn1` [Compound 74c, 2-(2-((7-(2-(aminomethyl)pyridin-4-yl)benzofuran-5-yl)methoxy)phenyl)acetic acid] yielded an IC50 of less than 1 µM.
In the case of `CC(C)Cc1cc2cc(COc3ccccc3CC(=O)O)cc(-c3ccnc(CN)c3F)c2o1` [Compound 220g, 2-(2-((7-(2-(aminomethyl)-3-fluoropyridin-4-yl)-2-isobutylbenzofuran-5-yl)methoxy)phenyl)acetic acid], the IC50 is reported as less than 1 µM.
`Cc1ccc(CC(=O)O)c(OCc2cc(-c3ccnc(CN)c3F)c3oc(F)cc3c2)c1` [Compound 525c, 2-(2-((7-(2-(aminomethyl)-3-fluoropyridin-4-yl)-2-fluorobenzofuran-5-yl)methoxy)-4-methylphenyl)acetic acid] gave an IC50 of less than 1 µM.
`NCc1cc(-c2cc(COc3ccccc3CC(=O)O)cc3cc(F)oc23)ccn1` [Compound 301b, 2-(2-((7-(2-(aminomethyl)pyridin-4-yl)-2-fluorobenzofuran-5-yl)methoxy)phenyl)acetic acid] was tested, and the IC50 was less than 1 µM.
`NCc1cccc(-c2cc(COc3ccc(F)cc3CC(=O)O)c(F)c3ccoc23)c1` [Compound 386c, 2-(2-((7-(3-(aminomethyl)phenyl)-4-fluorobenzofuran-5-yl)methoxy)-5-fluorophenyl)acetic acid] was tested, and the IC50 was less than 1 µM.
With `Cc1ccc(CC(=O)O)c(OCc2cc(-c3cccc(CN)c3)c3oc(CO)cc3c2)c1` [Compound 420e, 2-(2-((7-(3-(aminomethyl)phenyl)-2-(hydroxymethyl)benzofuran-5-yl)methoxy)-4-methylphenyl)acetic acid] the IC50 was less than 1 µM.
With `Cc1ccc(CC(=O)O)c(OCc2cc(-c3cccc(C(N)CF)c3)c3occc3c2)c1` (single isomer, unassigned; (+)) [Compound 269h, (+)-2-(2-((7-(3-(1-amino-2-fluoroethyl)phenyl)benzofuran-5-yl)methoxy)-4-methylphenyl)acetic acid] the IC50 was less than 1 µM.
With `NCc1cccc(-c2cc(COc3c(CC(=O)O)cccc3-c3ccccc3)cc3ccoc23)c1` [Compound 370f, 2-(2-((7-(3-(aminomethyl)phenyl)benzofuran-5-yl)methoxy)-[1,1′-biphenyl]-3-yl)acetic acid] the IC50 was less than 1 µM.
`NCc1cccc(-c2cc(COc3ccccc3CC(=O)O)cc3cc(C(F)(F)F)oc23)c1` [Compound 199f, 2-(2-((7-(3-(aminomethyl)phenyl)-2-(trifluoromethyl)benzofuran-5-yl)methoxy)phenyl)acetic acid] gave an IC50 of less than 1 µM.
In the case of `NCc1cccc(-c2cc(COc3c(CC(=O)O)ccc4ccoc34)cc3ccoc23)c1` [Compound 392g, 2-(7-((7-(3-(aminomethyl)phenyl)benzofuran-5-yl)methoxy)benzofuran-6-yl)acetic acid], the IC50 is reported as less than 1 µM.
Compound `NCc1cccc(-c2cc(C(=O)Nc3ccccc3CC(=O)O)cn3cnnc23)c1` [Compound 17c, 2-(2-(8-(3-(aminomethyl)phenyl)-[1,2,4]triazolo[4,3-a]pyridine-6-carboxamido)phenyl)acetic acid] has an IC50 greater than 10 µM.
Compound `Cc1cccc(CC(=O)O)c1NC(=O)c1nc(-c2cccc(CN)c2)nn2cccc12` [Compound 53d, 2-(2-(2-(3-(aminomethyl)phenyl)pyrrolo[2,1-f][1,2,4]triazine-4-carboxamido)-3-methylphenyl)acetic acid] has an IC50 of less than 1 µM.
`NCc1cccc(-c2cc(COc3cc(-c4ccccc4)ccc3CC(=O)O)cc3ccoc23)c1` [Compound 263c, 2-(3-((7-(3-(aminomethyl)phenyl)benzofuran-5-yl)methoxy)-[1,1′-biphenyl]-4-yl)acetic acid] was tested, and the IC50 was less than 1 µM.
With `NCc1nccc(-c2cc(COc3ccccc3CC(=O)O)cc3[nH]ccc23)c1F` [Compound 12c, 2-(2-((4-(2-(aminomethyl)-3-fluoropyridin-4-yl)-1H-indol-6-yl)methoxy)phenyl)acetic acid] the IC50 was less than 1 µM.
`COCc1cc2cc(COc3cc(OC)ccc3CC(=O)O)cc(-c3cccc(CN)c3F)c2o1` [Compound 467b, 2-(2-((7-(3-(aminomethyl)-2-fluorophenyl)-2-(methoxymethyl)benzofuran-5-yl)methoxy)-4-methoxyphenyl)acetic acid] gave an IC50 of less than 1 µM.
Work on `NCc1cccc(-c2nc(C(=O)Nc3ccccc3CC(=O)O)cc3ccoc23)c1` [Compound 28d, 2-(2-(7-(3-(aminomethyl)phenyl)furo[2,3-c]pyridine-5-carboxamido)phenyl)acetic acid] yielded an IC50 of less than 1 µM.
`Cn1ccc(NCc2cc3cc(COc4ccccc4CC(=O)O)cc(-c4cccc(CN)c4)c3o2)n1` [Compound 372c, 2-(2-((7-(3-(aminomethyl)phenyl)-2-(((1-methyl-1H-pyrazol-3-yl)amino)methyl)benzofuran-5-yl)methoxy)phenyl)acetic acid] showed an IC50 of less than 1 µM.
Compound `Cc1c(COc2ccccc2CC(=O)O)cc(-c2cccc(CN)c2)c2occc12` [Compound 413n, 2-(2-((7-(3-(aminomethyl)phenyl)-4-methylbenzofuran-5-yl)methoxy)phenyl)acetic acid] has an IC50 of less than 1 µM.
Work on `CC(=O)Nc1ccc(CC(=O)O)c(OCc2cc(-c3ccnc(CN)c3F)c3occc3c2)c1` [Compound 438c, 2-(4-acetamido-2-((7-(2-(aminomethyl)-3-fluoropyridin-4-yl)benzofuran-5-yl)methoxy)phenyl)acetic acid] yielded an IC50 of less than 1 µM.
